We go through one compound from patent US8835631B2, “Therapeutic agent for cerebral infarction” (Mitsubishi Tanabe Pharma Corporation, priority 2007, dated 2014).

Marks after values point to notes of the source that are not given here.

Data set [1] has as its system rat middle cerebral artery occlusion-reperfusion model. Put plainly: Cerebral infarction volume in rat middle cerebral artery occlusion-reperfusion model. The data set is classed as in vivo, male Wistar rats. The following applies: 10 mg/kg intravenously 30 min after occlusion, reperfusion 90 min after occlusion, brain isolated 24 hr later, TTC stain; FIG. 7. How it is done:
The middle cerebral artery of male Wistar rats (Japan Laboratory Animals Inc.) was obstructed with suture (silicon-coated nylon thread), and saline (Vehicle, n=7), test compound A (10 mg/kg, n=6) dissolved in saline, test compound B ([…], n=7) dissolved in saline, and test compound C (10 mg/kg, n=7) dissolved in saline were each intravenously administered in 30 min after occlusion and the artery was reperfused in 90 min after occlusion. The brain was isolated 24 hr later. A 2 mm brain strip was prepared, and the strip was stained with PBS (pH 7.4, 37° C.) containing 1% 2,3,5-triphenyltetrazolium chloride (TTC, Wako Pure Chemical Industries, Ltd.). The cerebral infarction area was measured by image analysis and the cerebral infarction volume was calculated.

The subject of the next data set is MCP-1. Put plainly: Intracerebral MCP-1 production in rat middle cerebral artery occlusion-reperfusion model. It counts as in vivo, male Wistar rats. Particulars: 10 mg/kg intravenously 30 min after occlusion; brain isolated 12 hr after occlusion; ELISA; FIG. 4. How it is done:
(§1) The middle cerebral artery of male Wistar rats (Japan Laboratory animals Inc.) was obstructed with suture (silicon-coated nylon thread), and test compound A (10 mg/kg) dissolved in saline was intravenously administered in 30 min after occlusion, and middle cerebral artery was reperfused in 60 min after administration. In only the rats used for TNF-α measurement, test compound A was administered orally. The brain was isolated at 12 hr after the occlusion (see Koizumi, J. et al., Jpn. J. Stroke, 8, 1-8, 1986). The brain tissue was homogenized, the centrifuged supernatant was collected and cytokine and chemokine were measured by ELISA. Intracerebral TNF-α, IL-1β and IL-6 were measured using an Immunoassay Kit (BIOSOURCE) according to the manufactures' protocol. MCP-1 was measured using an MCP-1 Instant ELISA (Bener MedSystems) according to the manufactures' protocol.
(In general: In an ELISA, binding on a coated surface is turned into a signal by an enzyme label.)

The test system of another data set is IL-10. Put plainly: IL-10 production in LPS-administered mouse. The data set is classed as in vivo, male BALB/c mouse. On the procedure:
(§2) LPS (lipopolysaccharide, derived from E. coli 0111:B4, Sigma, 500 μg/kg) was intraperitoneally administered to male BALB/c mouse (Charles River Laboratories Japan). After 90 min after LPS administration, the blood was taken under anesthesia, and centrifuged to collect plasma. TNF-α was measured using an Immunoassay Kit (R&D Systems) and IL-10, MCP-1 and IL-6 were measured using an Immunoassay Kit (BIOSOURCE). Test compound A, the compound synthesized in Example 3 (test compound B) and the compound synthesized in Example 7 (test compound C) were dissolved in saline, and the mixture was orally administered at 10 mg/kg 30 min before LPS administration. As shown in the Tables, the effect of each test compound on respective […] cytokines was calculated as the ratio of each cytokine concentration in the blood of the group administered with each test compound to each cytokine concentration in the blood of the group free of administration of each test compound.

The subject of data set [2] is TNF-α. Put plainly: TNF-α production in LPS-administered mouse. The data set is classed as in vivo, male BALB/c mouse. How it is done: as §2
Data set [3] deals with monkey middle cerebral artery permanent occlusion model. Put plainly: Brain injury volume and neurological deficit in monkey middle cerebral artery permanent occlusion model. The following applies: for spread of the cerebral infarction region (brain injury volume, MRI FLAIR): 5 mg/kg orally twice a day, FIG. 5. It counts as in vivo, Macaca fascicularis. How it is done: In monkey middle cerebral artery permanent occlusion model, the brain injury volume was measured by MR^1 (FLAIR method) one day and seven days after occlusion. Test compound A (5 mg/kg) dissolved in 0.5% tragacanth was repeatedly administered orally twice a day for 14 days. As for neurological score, the neurological function was evaluated by scoring the consciousness, perception, motility and muscular commands.
The middle cerebral artery permanent occlusion was conducted according to the method of Furuichi et al. (Furuichi, Y et al., J. Cereb. Blood Flow Metab., 23, 1183-1194, 2003), which is specifically as follows. Macaca fascicularis fasted in advance for 12 hr or longer was anesthetized by intramuscular administration of ketamine hydrochloride (10 mg/kg), anesthetized by intravenous administration of pentobarbital sodium (25 mg/kg) and fixed on an operating table. About 5 mm holes were made near foramen ovale and orbital fissure with a dental drill, dura mater and arachnoid mater were incised, and the middle cerebral artery trunk near the internal carotid artery bifurcation area was exposed. The middle cerebral artery trunk near the internal carotid artery bifurcation area was obstructed by electric coagulation to form cerebral infarction.
Test compound A was orally administered within 1 hr and 6 hr after middle cerebral artery occlusion and within 30 min after feeding in the morning and evening (twice a day) from the next day for 14 days.

In another data set the test system is IL-1β. Description: Intracerebral IL-1β production in rat middle cerebral artery occlusion-reperfusion model. The following applies: 10 mg/kg intravenously 30 min after occlusion; brain isolated 12 hr after occlusion; ELISA; FIG. 2. It counts as in vivo, male Wistar rats. On the procedure: as §1
The subject of data set [4] is TNF-α. Description: Intracerebral TNF-α production in rat middle cerebral artery occlusion-reperfusion model. Particulars: 10 mg/kg orally 30 min after occlusion; brain isolated 12 hr after occlusion; ELISA; FIG. 1. It counts as in vivo, male Wistar rats. On the procedure: as §1
Data set [5] is described as follows: Evaluation of bioavailability in rat. It counts as in vivo, male SD(IGS) rats. How it is done:
Test compound A, test compound B and test compound C were each dissolved in 0.5% aqueous HPMC (hydroxypropyl methylcellulose) solution in the case of oral administration, or in saline in the case of intravenous administration, and they were orally or intravenously administered to male SD(IGS) rats (Charles River Laboratories Japan) by 3 mg/kg. The concentration of unchanged drug in the plasma of each rat was measured, and bioavailability (F(%)) was calculated (F (%)=(AUC0-∞,p.o./AUC0-∞,i.v.,mean)×(Dosei.v./Dosep.o.)×100). The test compound was administered by gavage using an oral gavage needle (p.o.), or administered in the tail vein (i.v.). The blood samples were collected at 15 and 30 min, 1, 2, 4, 6, 8 and 24 hr after administration in the case of oral administration, and 5 and 30 min, 1, 2, 4, 6, 8 and 24 hr after administration in the case of intravenous administration.
The results are shown in Tables 4 (test compound A), 5 (test compound B) and 6 (test compound C). The Cmax values for i.v. in Tables 4, 5 and 6 show plasma concentration at 5 min after administration.

Data set [6] concerns IL-6. Put plainly: Intracerebral IL-6 production in rat middle cerebral artery occlusion-reperfusion model. The data set is classed as in vivo, male Wistar rats. The following applies: 10 mg/kg intravenously 30 min after occlusion; brain isolated 12 hr after occlusion; ELISA; FIG. 3. On the procedure: as §1
In data set [7] the test system is IL-6. Description: IL-6 production in LPS-administered mouse. The following applies: for IL-6 production (%): 10 mg/kg orally 30 min before LPS 500 μg/kg i.p., plasma 90 min after LPS, ratio to group without test compound. The data set is classed as in vivo, male BALB/c mouse. On the procedure: as §2
The mark [8] stands for this setting: 10 mg/kg orally 30 min before LPS.
Setting [9] is: Table 1, 10 mg/kg orally 30 min before LPS 500 μg/kg i.p., plasma 90 min after LPS, ratio to group without test compound.
Where [10] appears, read: 3 mg/kg i.v., plasma, Mean + SD.
Where [11] appears, read: 3 mg/kg p.o., plasma, Mean + SD.

In the case of `CC(=O)NC1(c2ccc(CN3CCN(c4ncccn4)CC3)cc2)CC1.Cl` [test compound A, N-(1-(4-((4-(pyrimidin-2-yl)piperazin-1-yl)methyl)phenyl)cyclopropyl)acetamide•hydrochloride], the “suppression of cerebral infarction volume” value in data set [1] is 42.5%. In addition, the “intracerebral MCP-1 concentration increased by transient cerebral ischemia” value in the data set with MCP-1 is “suppressed”. In the data set on IL-10 (setting [8]), the “IL-10 in LPS model mouse (in words)” value is “increased”. Moreover, the “IL-10 production (%)” value in the data set on IL-10 (setting [9]) is listed as 397.1%. For the same compound, the “TNF-α production in LPS model mouse (in words)” value in the data set on TNF-α [2] (setting [8]) is reported as “suppressed”. The “TNF-α production (%)” value in the data set on TNF-α [2] (setting [9]) amounted to 43.5%. Moreover, in data set [3] (5 mg/kg orally twice a day for 14 days, FIG. 6), the “neurological deficit (neurological function score)” value is given as “neurological deficit-ameliorating effect”. Besides, in data set [3] (1 day after occlusion), the “spread of the cerebral infarction region (brain injury volume, MRI FLAIR)” value is reported as “suppressive action”. In data set [3] (7 days after occlusion), the “spread of the cerebral infarction region (brain injury volume, MRI FLAIR)” value is on record as “suppressive action”. Besides, in the data set on IL-1β, the “intracerebral IL-1β concentration increased by transient cerebral ischemia” value is reported as “suppressed”. Further, the “intracerebral TNF-α concentration increased by transient cerebral ischemia” value with TNF-α [4] is given as “suppressed”. Also, in data set [5] (setting [10]), the AUC0-24 h came out at 3850 ± 78.4 ngh/mL; the “AUC0-∞” value is 3841.3 ± 77.4 ngh/mL; the “Cmax (C5 min, plasma concentration at 5 min after administration)” value is on record as 2219.9 ± 103.8^2) ng/mL. Also, in [5] (3 mg/kg p.o. vs 3 mg/kg i.v., F = (AUC0-∞,p.o./AUC0-∞,i.v.,mean) × (Dosei.v./Dosep.o.) × 100), the “F (bioavailability)” value is given as 104.3%. In data set [5] (setting [11]), the AUC0-24 h stood at 4032.9 ± 501.8 ngh/mL; the “AUC0-∞” value came to 4008.2 ± 491.5 ngh/mL; the Cmax (as a rule, the highest concentration seen after dosing) was determined as 1459.7 ng/mL. Also, in the data set on IL-6 [6], the “intracerebral IL-6 concentration increased by transient cerebral ischemia” value is “suppressed”. Further, the “IL-6 production in LPS model mouse (in words)” value in the data set on IL-6 [7] (setting [8]) is recorded as “suppressed”. Moreover, in the data set with IL-6 [7] (Table 2), the “IL-6 production (%)” value was found to be 74.4%. Also, the “IL-6 production (%)” value in the data set on IL-6 [7] (Table 3) amounted to 78.4%.
